Laboratory results taken from patent US7029652B2, “Method of treating tumors” (The Regents of the University of California, priority 1998, dated 2006).

Legend:
[1] = tested on: HBT 3477 cells; assay: HBT 3477 cell binding radioimmunoreactive assay (RIA); parameters: species or system human
From the text: ^90Y-DOTA-peptide-ChL6. ChL6 was conjugated to 1,4,7,10-tetraazacyclododecane-N,N′,N″,N′″-tetraacetic acid (DOTA) and radiolabeled with ^90Y as described by DeNardo, et al. J. Nucl. Med., 36:829–836, with greater than or equal to 80 percent efficiency to prepare ^90Y-DOTA-peptide-ChL6. ^90Y-DOTA-peptide-ChL6 was examined for structural and functional integrity by molecular sieving high performance liquid chromatography (HPLC), cellulose acetate electrophoresis (CAE), and HBT 3477 cell binding radioimmunoreactive assay (RIA). […] Immunoreactive binding to live cells indicated greater than 92% reactivity; administration as a single dose of 200, 230 or 260 […] ^90Y-DOTA-peptide-ChL6.

[2] = tested on: HBT 3477 tumors; assay: TUNEL analysis of total cell apoptosis in tumors; format: in vivo, mice
Description: (§1) Cellular immunopathology groups. Unless otherwise noted, groups consisted of 2 mice, each bearing 2 tumors, for a total of 4 tumors analyzed at each time point. […] The tumors were removed, cut in half, frozen in optimal cutting temperature (O.C.T). medium, and stored at about −70° C. until sectioning (10-μm sections). All time points were evaluated for apoptosis by terminal deoxynucleotidyl transferase-mediated dUTP nick end labeling (TUNEL, Cavrieli, et al. J. Cell Bio., 119: 493–501 (1992)) analysis, and selected time points (untreated, 1,5 and 6 days) were assessed for differences in proliferation rate (Ki67) and microvessel density (CD31).
TUNEL analysis of total and endothelial apoptosis. Tumors were cut into 10-μm sections onto Fisher superplus slides (Fisher, Pittsburgh, Pa.), air-dried for 1 hour and frozen at about −70° C. until TUNEL analysis with ApopTag Red kit (rhodamine used as label, Intergen, Purchase, N.Y.) following the manufacturer's instructions subsequent to fixation for about 10 minutes in 1% paraformadehyde. After TUNEL, the slides were rinsed, and incubated overnight at 4° C. with a rat anti-mouse MAb against CD31 at 1:100 dilution (Pharmingen, San Diego, Calif.) to identify endothelial cells. Slides were rinsed and incubated for 1 hour with an anti-rat antibody linked to FITC (1:50 dilution) (Pharmingen). Slides were rinsed, dipped briefly in 4,6-diamidino-2-phenylindole (DAPI, 0.2 μg/ml) for background nuclear stain, rinsed again and mounted, followed by storage in the dark at about 4° C. until quantitation.
Quantitation of total apoptosis and endothelial apoptosis. An Olympus microscope equipped with a Chroma Pinkle Filter Set (Chroma, Brattleboro, Vt.) with excitation filters for UV, FITC and rhodamine and dual/triple bandpass filters to allow simultaneous viewing of multiple wavelengths, was used to quantify 6 randomly chosen X600 fields (150,000 μm^2/field) in non-necrotic regions of each section. Fields were chosen to cover the entire viewing area using DAPI label, which typically included about 300–350 cells. Total apoptosis was determined by the average number of positive nuclei per field for each tumor while endothelial apoptosis was determined using the same fields with a dual bandpass filter to count cells labeled by both FITC (CD31) and rhodamine (TUNEL). Fields were chosen from apparently non-necrotic areas of tumor sections, as HBT 3477 xenografts typically grow quickly in nude mice, doubling their volumes in 6 days, resulting in central necrosis of untreated tumors. As TUNEL may label necrotic cells, though less intensely, this strategy was chosen over a completely random process.

[3] = tested on: HBT 3477 cells; assay: Attachment of HBT 3477 cells to vitronectin; format: cell-based, human; settings: read-out: IC50 for blocking attachment of HBT 3477 cells to vitronectin
From the text: Cell Lines. HBT 3477, a human breast adenocarcinoma cell line, was obtained from Bristol-Myers Squibb Pharmaceutical Research Institute (Seattle, Wash.). Greater than 70% of HBT 3477 cells stain intensely with L6. In HBT 3477 cells, bcl-2 is expressed and p53 is mutant, with a nonsense mutation in exon 10, resulting in a deletion in the region of the p53 protein that functions in tetramerization and in detection of double-stranded DNA breaks. HBT 3477 cells express functional αvβ5 integrin, but not αvβ3 integrin, as attachment to vitronectin is blocked by αvβ5-specific P1F6 antibody, but is not blocked by αvβ3-specific LM609 antibody.

[4] = tested on: endothelial cells in HBT 3477 tumors; assay: TUNEL/CD31 analysis of endothelial apoptosis in tumors; format: in vivo, mice
Description: as §1
TUNEL analysis of total and endothelial apoptosis. […] Slides were rinsed, dipped briefly in 4,6-diamidino-2-phenylindole (DAPI, 0.2 μg/ml) for background nuclear stain, rinsed again and mounted, followed by storage in the dark at about 4° C. until quantitation.
Quantitation of total apoptosis and endothelial apoptosis. An Olympus microscope equipped with a Chroma Pinkle Filter Set (Chroma, Brattleboro, Vt.) with excitation filters for UV, FITC and rhodamine and dual/triple bandpass filters to allow simultaneous viewing of multiple wavelengths, was used to quantify 6 randomly chosen X600 fields (150,000 μm^2/field) in non-necrotic regions of each section. […]

[5] = tested on: αvβ3-expressing M21 melanoma cells; settings: stated in words; cited from earlier work

| Molecule | Immunoreactive binding to live cells, reactivity [1] | TUNEL-positive tumor and endothelial cells (total cells) ([2]; 6 days) [cells/field] | total cell apoptosis, percent of cells ([2]; 6 days) [%] | IC50 [3] [µM] | endothelial apoptosis ([4]; 1 day after treatment) [cells/field] | endothelial apoptosis ([4]; 5 days after treatment) [cells/field] | IC50 for αvβ3-expressing M21 melanoma cells [5] | total cell apoptosis, percent of cells ([2]; 1 day after treatment) [%] | TUNEL-positive tumor and endothelial cells (total cells) ([2]; 1 day after treatment, X600, about 350 cells/field) [cells/field] |
| --- | --- | --- | --- | --- | --- | --- | --- | --- | --- |
| ^90Y-1,4,7,10-tetraazacyclododecane-N,N′,N″,N′″-tetraacetic acid-peptide-ChL6 [RIT] | greater than 92% | 21.4±2.9 | 6.1 | – | – | – | – | – | – |
| CC(C)[C@H]1C(=O)N[C@@H](CCCN=C(N)N)C(=O)NCC(=O)N[C@@H](CC(=O)O)C(=O)N[C@H](Cc2ccccc2)C(=O)N1C [cyclo-(Arg-Gly-Asp-D-Phe-[N-Me]-Val)] | – | – | – | ~5 | 2.5±0.5 | 2.4±0.7 | low micromolar range | 4.6 | 16.2±1.89 |
